Data set [1] has as its system human plasma proteins. In words: Plasma protein binding by equilibrium dialysis (human). The format is in vitro ADME. The settings on record: human plasma, equilibrium dialysis, n = 3. As to the method: (§1) The phosphate buffer (100 mM) and sodium hydroxide solution (1.0 M) were prepared in deionized water. […] PPB was determined by equilibrium dialysis method. An aliquot (150 μL) of NHPPC spiked plasma and phosphate buffer (pH 7.4) was added into the donor side and the receiver side of each designated well. The plate was covered with adhesive sealing film to prevent evaporation and placed in a water-bath shaker kept at 37°C for 6 h with a rate of 50 rpm. […] At the end of 6 h, aliquots were taken from each side of each well (n = 3) and kept in a −20°C freezer prior to analysis. The stability, device recovery and PPB were calculated using the following equations: Remaining at 6 h (%)=C6h/C0h×100%, Device recovery (%)=CDonor+CReceiver/C6h×100%, PPB (%)=CDonor−CReceiver/CDonor×100%.

Data set [2] has as its system dog plasma proteins. Nature of the data set: Plasma protein binding by equilibrium dialysis (dog). The settings on record: dog plasma, equilibrium dialysis, n = 3. It counts as in vitro ADME, Beagle dog. The method, then: as §1
Background: In equilibrium dialysis only unbound substance equilibrates across the membrane.

Data set [3] relates to rat plasma proteins. Nature of the data set: Plasma protein binding by equilibrium dialysis (rat). The format is in vitro ADME, Sprague–Dawley rat. The settings on record: rat plasma, equilibrium dialysis, n = 3. The method, then:
as §1

Turning to `CC(=O)CC(c1ccccc1)c1c(O)c2ccccc2oc1=O` (stereo not drawn) [Warf, reference compound], the “Mean device recovery %” value in data set [1] stood at 107.0 ± 0.25%; in data set [2], 100.7 ± 0.49%; in data set [3] it was 107.9 ± 0.03%.

The values above are taken from article PMC6567057, “Pharmacokinetic, metabolic stability, plasma protein binding and CYP450s inhibition/induction assessment studies of N-(2-pyridylmethyl)-2-hydroxiymethyl-1-pyrrolidinyl-4-(3-chloro-4-methoxy-benzylamino)-5-pyrimidine-carboxamide as potential type 5 phosphodiesterase inhibitors” (Animal Cells and Systems, 2019).
